Patent US9884832B2 (priority 2011, dated 2018)

target: AM2 S31 (wild-type serine at position 31 in the M2 protein), influenza virus A/Udorn/72 (Influenza A virus, UniProt P0DOF5); experiment: cell-based; conditions: 100 uM; Xenopus oocytes; activity range class; read-out: S31 OOcyte Inhibition at 100 uM (%)
Sequence (P0DOF5 whole entry, looked up): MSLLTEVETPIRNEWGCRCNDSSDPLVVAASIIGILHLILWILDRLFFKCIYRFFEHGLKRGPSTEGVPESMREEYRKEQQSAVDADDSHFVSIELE

Row | Structure (SMILES) | inhibition at 100 µM
1 | c1csc(-c2ccc(CNC34CC5CC(CC(C5)C3)C4)cc2)c1 [Example 29a, N-(4-(Thiophen-2-yl)benzyl)adamantan-1-amine methanesulfonate] | 0 to 30%
2 | c1cc(CNC23CC4CC(CC(C4)C2)C3)cc(-c2ccco2)c1 [Example 30a, N-(3-(Furan-2-yl)benzyl)adamantan-1-amine] | 0 to 30%
3 | c1coc(-c2ccc(CNC34CC5CC(CC(C5)C3)C4)cc2)c1 [Example 31a, N-(4-(Furan-2-yl)benzyl)adamantan-1-amine] | 0 to 30%
4 | Cc1ccc(-c2ccc(CNC34CC5CC(CC(C5)C3)C4)cc2)o1.Cl [Example 32a, N-(4-(5-Methylfuran-2-yl)benzyl)adamantan-1-amine hydrochloride] | 0 to 30%
5 | Cc1noc(C)c1-c1ccc(CNC23CC4CC(CC(C4)C2)C3)cc1 [Example 33a, N-(4-(3,5-Dimethylisoxazol-4-yl)benzyl)adamantan-1-amine] | 0 to 30%
6 | c1cc(CNC23CC4CC(CC(C4)C2)C3)cc(-c2cccs2)c1 [Example 34a, N-(3-(thiophen-2-yl)benzyl)adamantan-1-amine] | 0 to 30%

same assay, conditions: 100 uM; Xenopus oocytes; numeric value; read-out: S31 OOcyte Inhibition at 100 uM (%)

Row | Structure (SMILES) | inhibition at 100 µM
7 | c1cn(-c2ccc(CNC34CC5CC(CC(C5)C3)C4)cc2)cn1 [Example 36a, N-(4-(1H-imidazol-1-yl)benzyl)adamantan-1-amine] | 16.1%

same assay, conditions: Table 1; 100 uM; Xenopus oocytes, pH 5.5, -20 mV; read-out: S31 OOcyte Inhibition at 100 uM (%)

Row | Structure (SMILES) | inhibition at 100 µM
8 | c1cc(COc2ccc(CNC34CC5CC(CC(C5)C3)C4)cc2)co1 [Example 22, Adamantan-1-yl-[4-(furan-3-ylmethoxy)-benzyl]-amine] | 31 to 95%
9 | CSc1ccc(CNC23CC4CC(CC(C4)C2)C3)cc1 [Example 23, Adamantan-1-yl-(4-methylsulfanyl-benzyl)-amine] | 0 to 30%
10 | C[S+]([O-])c1ccc(CNC23CC4CC(CC(C4)C2)C3)cc1 (stereo not shown) [Example 24, Adamantan-1-yl-(4-methanesulfinyl-benzyl)-amine] | 0 to 30%
11 | CS(=O)(=O)c1ccc(CNC23CC4CC(CC(C4)C2)C3)cc1 [Example 25, Adamantan-1-yl-(4-methanesulfonyl-benzyl)-amine] | 31 to 95%
12 | FC(F)(F)Sc1ccc(CNC23CC4CC(CC(C4)C2)C3)cc1 [Example 26, Adamantan-1-yl-(4-trifluoromethylsulfanyl-benzyl)-amine] | 0 to 30%
13 | Fc1ccc(CNC23CC4CC(CC(C4)C2)C3)cc1 [Example 27, Adamantan-1-yl-(4-fluoro-benzyl)-amine] | 31 to 95%
14 | COc1ccccc1CNC12CC3CC(CC(C3)C1)C2 [Example 29, Adamantan-1-yl-(2-methoxy-benzyl)-amine] | 0 to 30%
15 | O=[N+]([O-])c1ccccc1CNC12CC3CC(CC(C3)C1)C2 [Example 30, Adamantan-1-yl-(2-nitro-benzyl)-amine] | 31 to 95%
16 | Oc1cccc(CNC23CC4CC(CC(C4)C2)C3)c1 [Example 31, 3-(Adamantan-1-ylaminomethyl)-phenol] | 31 to 95%
17 | COc1ccc(CN(C)C23CC4CC(CC(C4)C2)C3)cc1 [Example 32, Adamantan-1-yl-(4-methoxy-benzyl)-methyl-amine] | 31 to 95%
18 | CC(=O)Oc1ccc(CNC23CC4CC(CC(C4)C2)C3)cc1 [Example 33, Acetic acid 4-(adamantan-1-ylaminomethyl)-phenyl ester] | 31 to 95%
19 | O=C(Oc1ccc(CNC23CC4CC(CC(C4)C2)C3)cc1)C1CC1 [Example 34, Cyclopropanecarboxylic acid 4-(adamantan-1-ylaminomethyl)-phenyl ester] | 0 to 30%
20 | c1cnn(-c2ccc(CNC34CC5CC(CC(C5)C3)C4)cc2)c1 [Example 35, Adamantan-1-yl-(4-pyrazol-1-yl-benzyl)-amine] | 0 to 30%
21 | c1cn(-c2ccc(CNC34CC5CC(CC(C5)C3)C4)cc2)cn1 [Example 36, Adamantan-1-yl-(4-imidazol-1-yl-benzyl)-amine] | 0 to 30%

same assay, conditions: Table 3; 100 uM; Xenopus oocytes, pH 5.5, -20 mV; read-out: S31 OOcyte Inhibition at 100 uM (%)

Row | Structure (SMILES) | inhibition at 100 µM
22 | C1COC(c2nc(CNC34CC5CC(CC(C5)C3)C4)no2)C1 (stereo not shown) [Example 21b, N-((5-(tetrahydrofuran-2-yl)-1,2,4-oxadiazol-3-yl)methyl)adamantan-1-amine] | 0 to 30%
23 | CC(C)Cc1nc(CNC23CC4CC(CC(C4)C2)C3)no1 [Example 22b, N-((5-isobutyl-1,2,4-oxadiazol-3-yl)methyl)adamantan-1-amine] | 0 to 30%
24 | COCc1nc(CNC23CC4CC(CC(C4)C2)C3)no1 [Example 23b, N-((5-(methoxymethyl)-1,2,4-oxadiazol-3-yl)methyl)adamantan-1-amine] | 0 to 30%
25 | C1CCC(c2nc(CNC34CC5CC(CC(C5)C3)C4)no2)CC1 [Example 24b] | 31 to 95%
26 | Cc1noc(C)c1-c1nc(CNC23CC4CC(CC(C4)C2)C3)no1 [Example 25b, N-((5-(3,5-dimethylisoxazol-4-yl)-1,2,4-oxadiazol-3-yl)methyl)adamantan-1-amine] | 0 to 30%
27 | CCCc1cc(CNC23CC4CC(CC(C4)C2)C3)no1 [Example 26b, N-((5-propylisoxazol-3-yl)methyl)adamantan-1-amine] | 0 to 30%
28 | CC(C)c1cc(CNC23CC4CC(CC(C4)C2)C3)no1 [Example 27b, N-((5-isopropylisoxazol-3-yl)methyl)adamantan-1-amine] | 0 to 30%
29 | COc1ccc(Cc2nc(CNC34CC5CC(CC(C5)C3)C4)no2)cc1OC [Example 28b, N-((5-(3,4-dimethoxybenzyl)-1,2,4-oxadiazol-3-yl)methyl)adamantan-1-amine] | 0 to 30%
30 | CCCc1nc(CNC23CC4CC(CC(C4)C2)C3)no1 [Example 29b, N-((5-propyl-1,2,4-oxadiazol-3-yl)methyl)adamantan-1-amine] | 0 to 30%
31 | COc1ccccc1-c1noc(CNC23CC4CC(CC(C4)C2)C3)n1 [Example 30b, N-((3-(2-methoxyphenyl)-1,2,4-oxadiazol-5-yl)methyl)adamantan-1-amine] | 0 to 30%
32 | Clc1ccccc1-c1nc(CNC23CC4CC(CC(C4)C2)C3)no1 [Example 31b, N-((5-(2-chlorophenyl)-1,2,4-oxadiazol-3-yl)methyl)adamantan-1-amine] | 0 to 30%
33 | c1c(CNC23CC4CC(CC(C4)C2)C3)noc1C1CCCCC1 [Example 32b, N-((5-cyclohexylisoxazol-3-yl)methyl)adamantan-1-amine] | 0 to 30%
34 | Fc1cc(F)cc(-c2cc(CNC34CC5CC(CC(C5)C3)C4)no2)c1 [Example 33b, N-((5-(3,5-difluorophenyl)isoxazol-3-yl)methyl)adamantan-1-amine] | 0 to 30%
35 | COc1ccc(-c2nc(CNC34CC5CC(CC(C5)C3)C4)no2)c(OC)c1 [Example 34b, N-((5-(2,4-dimethoxyphenyl)-1,2,4-oxadiazol-3-yl)methyl)adamantan-1-amine] | 0 to 30%
36 | COc1ccc(-c2noc(CNC34CC5CC(CC(C5)C3)C4)n2)cc1OC [Example 35b, N-((3-(3,4-dimethoxyphenyl)-1,2,4-oxadiazol-5-yl)methyl)adamantan-1-amine] | 0 to 30%

same assay, conditions: pH 5.5, read-out: S31 OOcyte Inhibition at 100 uM (%)

Row | Structure (SMILES) | inhibition at 100 µM
37 | Oc1ccccc1CNC12CC3CC(CC(C3)C1)C2 [Example 28, 2-(Adamantan-1-ylaminomethyl)-phenol] | 31 to 95%
